Results on 24 molecules are retold here after ChEMBL document CHEMBL5512613, “Design and synthesis of novel 3-amino-5-phenylpyrazole derivatives as tubulin polymerization inhibitors targeting the colchicine-binding site” (Eur J Med Chem, 2024).

The source made the active and inactive calls. The rule behind the calls is not given here.

The test system of series [1] is MDA-MB-231. Nature of the series: Antiproliferative activity against human MDA-MB-231 cells assessed as inhibition of cell growth incubated for 48 hrs by MTT assay. Conditions: MDA-MB-231, 48 h. The format is functional, cell-based. In general terms: Tetrazolium assays rely on reduction of a dye to a coloured formazan, in cell work by metabolically active cells.
Series [2] concerns HeLa. Description: Antiproliferative activity against human HeLa cells assessed as inhibition of cell growth incubated for 48 hrs by MTT assay. It is filed as functional, cell-based.
The subject of series [3] is HT-29. Nature of the series: Antiproliferative activity against human HT-29 cells assessed as inhibition of cell growth incubated for 48 hrs by MTT assay. The format is functional, cell-based. To be noted: HT-29, 48 h.
Series [4] concerns MCF7. Description: Inhibition of colony formation in human MCF7 cells at 10 nM incubated for 2 weeks in 5% CO2 at 37 degC by crystal violet staining based analysis. The format is functional, cell-based.
Series [5] can be described thus: Cytotoxicity against human L02 cells assessed as inhibition of cell growth incubated for 48 hrs by MTT assay. The format is toxicity, cell-based.
Series [6] deals with A549. Description: Antiproliferative activity against human A549 cells assessed as inhibition of cell growth incubated for 48 hrs by MTT assay. It is filed as functional, cell-based. Conditions: A549, 48 h.
Series [7] relates to MCF7. Description: Antiproliferative activity against human MCF7 cells assessed as inhibition of cell growth incubated for 48 hrs by MTT assay. It is filed as functional, cell-based. To be noted: MCF7, 48 h.
The target of series [8] is Tubulin (Homo sapiens) (UniProt P68371+Q9H4B7+P0DPH7+P68366+Q13509+Q71U36+P04350+Q3ZCM7+P07437+P68363+Q9BQE3+Q6PEY2+Q13885+Q9BVA1+Q9BUF5). Nature of the series: Stabilization of tubulin in human MCF7 cells assessed as stable and fascicled microtubules at 25 nM incubated for 8 hrs by DAPI staining based immunofluorescence assay. It is filed as cell-based.
In series [9] the test system is MCF7. Nature of the series: Antitumor activity against human MCF7 cells xenografted in BALB/c mouse assessed as inhibition of tumor growth by measuring decrease in tumor weight at 10 mg/kg, ip administered every 3 days for 21 days. The format is functional. Conditions: MCF7, 504 h, time 21 day, read-out: TGI.

For orientation: IC50 means the concentration needed to halve the response being measured.

On to `COc1ccc(/C=C\c2cc(OC)c(OC)c(OC)c2)cc1O` [COMBRETASTATIN A4], for which the half-maximal inhibitory concentration (IC50) in [1] amounted to 0.11 µM; in [2] it was 0.09 µM; in [3] it was 0.38 µM; in [6] it was 0.28 µM. For the same molecule, the inhibition result in series [4] was “Active”. The IC50 at 48 h in [5] was 3.2 µM.
Turning to `COc1cc(C(=O)n2nc(N)cc2-c2cccc(Cl)c2)cc(OC)c1OC`, the IC50 in series [7] worked out at 0.11 µM; in [2], 0.14 µM; in [3], 0.85 µM; in series [6] it was 5.18 µM. The IC50 at 48 h in [5] turned out to be 1.64 µM.
Turning to `Nc1cc(-c2ccc(F)cc2)n(C(=O)c2ccc3c(c2)OCO3)n1`, the IC50 in series [7] was 4.44 µM; in series [1] it was 1.97 µM; in series [2], > 5 µM; in [3], > 5 µM; in series [6] it was 3.84 µM. Moreover, the 50% inhibitory concentration (IC50) at 48 h in series [5] stood at 6.06 µM.
`COc1ccc(-c2cc(N)nn2C(=O)c2cc(OC)c(OC)c(OC)c2)cc1OC`: the IC50 is 0.17 µM in series [7]; 1.57 µM in [1]; 0.56 µM in series [2]; 1.77 µM in series [3]; 0.78 µM in series [6]. In series [5], the half-maximal inhibitory concentration (IC50) at 48 h turned out to be 4.1 µM.
Take `COc1ccc(-c2cc(N)nn2C(=O)c2ccc3c(c2)OCO3)cc1OC`: the 50% inhibitory concentration (IC50) came to 1.19 µM in series [7]; 2.16 µM in series [1]; 4.93 µM in series [2]; 3.57 µM in series [3]; 2.77 µM in [6]. The IC50 at 48 h in series [5] was 2.09 µM.
As for `COc1cc(C(=O)n2nc(N)cc2-c2ccc(F)cc2)cc(OC)c1OC`, the 50% inhibitory concentration (IC50) came out at 0.15 µM in series [7]; 0.39 µM in [1]; 0.13 µM in [2]; 0.06 µM in series [3]; 2.53 µM in series [6]. For the same molecule, the IC50 at 48 h in series [5] was 6.24 µM.
On to `COc1cc(C(=O)n2nc(N)cc2-c2cccc(C)c2)cc(OC)c1OC`, for which the IC50 in series [7] came out at 0.08 µM; in [1], 1.27 µM; in [2], 0.2 µM; in [3], 1.06 µM; in [6], 0.77 µM. In addition, in series [5], the 50% inhibitory concentration (IC50) at 48 h is 2.81 µM.
`COc1cccc(-c2cc(N)nn2C(=O)c2cc(OC)c(OC)c(OC)c2)c1`: the IC50 in series [7] was 0.4 µM; in series [1], 1.29 µM; in [2], 2.04 µM; in [3] it was 0.16 µM; in [6] it was 0.89 µM. Moreover, the IC50 at 48 h in series [5] stood at 5.68 µM.
In the case of `COc1ccc(C(=O)n2nc(N)cc2-c2ccc(OC)c(OC)c2)cc1OC`, the half-maximal inhibitory concentration (IC50) in [7], in series [1], in [2], in series [3] and in series [6] was > 5 µM throughout. Besides, the half-inhibitory concentration (IC50) at 48 h in series [5] is > 10 µM.
With `COc1cc(C(=O)n2nc(N)cc2-c2ccc(Br)cc2)cc(OC)c1OC`, the IC50 is 2.08 µM in series [7]; 3.02 µM in series [1]; 0.62 µM in [2]; 4.61 µM in series [3]; 2.43 µM in series [6]. In series [5], the IC50 at 48 h was 2.68 µM.
For the molecule `COc1cc(C(=O)n2nc(N)cc2-c2cccc(Br)c2)cc(OC)c1OC`, the half-maximal inhibitory concentration (IC50) in [7] stood at 0.19 µM; in [1] it was 0.54 µM; in [2], 0.44 µM; in series [3], 0.28 µM; in series [6], 2.18 µM. Moreover, the IC50 at 48 h in [5] is > 10 µM.
For `COc1ccc(C(=O)n2nc(N)cc2-c2cccc(Cl)c2)cc1OC`, the IC50 in [7], in [1], in [2], in series [3] and in series [6] was > 5 µM each time. The half-inhibitory concentration (IC50) at 48 h in series [5] was > 10 µM.
Regarding `COc1cccc(-c2cc(N)nn2C(=O)c2ccc3c(c2)OCO3)c1`, the IC50 in [7], in series [1], in [2], in series [3] and in [6] was > 5 µM each time. In series [5], the concentration for half-maximal inhibition (IC50) at 48 h is > 10 µM.
For the molecule `COc1cc(C(=O)n2nc(N)cc2-c2cccc(F)c2)cc(OC)c1OC`, the IC50 in series [7] worked out at 0.12 µM; in series [1], 0.33 µM; in [2], 0.32 µM; in series [3], 0.19 µM; in [6] it was 2.89 µM. In [5], the IC50 at 48 h was determined as 4.17 µM.
On to `COc1cccc(-c2cc(N)nn2C(=O)c2ccc(OC)c(OC)c2)c1`, for which the IC50 in series [7] is 1.2 µM; in series [1] it was 3.09 µM; in series [2] it was > 5 µM; in series [3], > 5 µM; in series [6] it was 2.97 µM. Also, the 50% inhibitory concentration (IC50) at 48 h in series [5] came out at 2.61 µM.
As to `Cc1ccc(-c2cc(N)nn2C(=O)c2ccc3c(c2)OCO3)cc1`, the IC50 was determined as 0.12 µM in series [7]; 0.17 µM in series [1]; 0.04 µM in series [2]; 1.92 µM in series [3]; 2.15 µM in [6]. Moreover, the IC50 at 48 h in series [5] was 3.9 µM.
As to `COc1ccc(C(=O)n2nc(N)cc2-c2ccc(F)cc2)cc1OC`, the IC50 in series [7], in series [1], in [2], in series [3] and in series [6] was > 5 µM each time. Besides, the half-maximal inhibitory concentration (IC50) at 48 h in series [5] was > 10 µM.
On to `COc1ccc(C(=O)n2nc(N)cc2-c2ccc(C)cc2)cc1OC`, for which the IC50 in [7] stood at 1.36 µM; in series [1], 3.08 µM; in series [2], 4.85 µM; in [3], 1.85 µM; in series [6] it was 2.53 µM. Further, in series [5], the IC50 at 48 h worked out at 5.58 µM.
As to `COc1ccc(C(=O)n2nc(N)cc2-c2ccc(Br)cc2)cc1OC`, the half-maximal inhibitory concentration (IC50) is 0.18 µM in series [7]; 1.29 µM in series [1]; 1.54 µM in series [2]; 1.08 µM in series [3]; 2.68 µM in series [6]. Also, in series [5], the IC50 at 48 h is 1.12 µM.
Turning to `Nc1cc(-c2ccc(Cl)cc2)n(C(=O)c2ccc3c(c2)OCO3)n1`, the half-inhibitory concentration (IC50) in series [7] was 0.75 µM; in series [1], 3.87 µM; in series [2], 2.79 µM; in series [3] it was > 5 µM; in series [6], 1.68 µM. The IC50 at 48 h in series [5] was > 10 µM.
Turning to `COc1ccc(-c2cc(N)nn2C(=O)c2cc(OC)c(OC)c(OC)c2)cc1`, the IC50 was 0.31 µM in series [7]; 0.84 µM in [1]; 0.65 µM in series [2]; 0.4 µM in [3]; 0.35 µM in [6]. Besides, the IC50 at 48 h in series [5] is > 10 µM.
On to `COc1ccc(C(=O)n2nc(N)cc2-c2ccc(Cl)cc2)cc1OC`, for which the IC50 in [7] is 1.54 µM; in [1], > 5 µM; in series [2], 2.86 µM; in series [3], 3.91 µM; in [6] it was 1.78 µM. Moreover, the IC50 at 48 h in [5] was 4.66 µM.
For `CC(=O)O[C@H]1C(=O)[C@@]2(C)[C@H]([C@H](OC(=O)c3ccccc3)[C@]3(O)C[C@H](OC(=O)[C@H](O)[C@@H](NC(=O)c4ccccc4)c4ccccc4)C(C)=C1C3(C)C)[C@]1(OC(C)=O)CO[C@@H]1C[C@@H]2O` [PACLITAXEL], the half-inhibitory concentration (IC50) in [7] was determined as 0.22 µM; in series [1], 0.19 µM; in series [2], 0.02 µM; in [3], 0.07 µM. Further, the inhibition entry in series [4] was “Active”. For the same molecule, the outcome in series [8] was Active. Further, the inhibition in vivo at 10 mg/kg in series [9] was found to be 73.5%. For the same molecule, the half-inhibitory concentration (IC50) at 48 h in [5] is 1.73 µM.
As for `COc1cc(C(=O)n2nc(N)cc2-c2ccc(Cl)cc2)cc(OC)c1OC`, the IC50 was found to be 2.77 µM in series [7]; 2.98 µM in series [1]; 2.55 µM in series [2]; 4.35 µM in series [3]; 1.36 µM in series [6]. Moreover, the IC50 at 48 h in series [5] worked out at 2.73 µM.
